The results in this text go back to publication PMC4883112 (Journal of medicinal chemistry, 2015).

Molecules are shown by their SMILES. Values after ≈ are worked out from the molar mass of the structure shown. “Also recorded” adds a separate entry of the source.

Data set [1] in a line: Aqueous solubility, Shake-Flask method and HPLC. Type of data set: physicochemical. To be noted: water with 2% DMSO.
The next data set deals with GSK-3β (Sus scrofa, UniProt B2LUN4). In words: Commercial in vitro GSK-3β inhibition assay at single concentration. The class given is biochemical, porcine. To be noted: duplicates; for inhibition at 1 µM: read-out: GSK-3β Inhibition [%], 1 μM of compound.
Chain of GSK-3β (B2LUN4 1-420): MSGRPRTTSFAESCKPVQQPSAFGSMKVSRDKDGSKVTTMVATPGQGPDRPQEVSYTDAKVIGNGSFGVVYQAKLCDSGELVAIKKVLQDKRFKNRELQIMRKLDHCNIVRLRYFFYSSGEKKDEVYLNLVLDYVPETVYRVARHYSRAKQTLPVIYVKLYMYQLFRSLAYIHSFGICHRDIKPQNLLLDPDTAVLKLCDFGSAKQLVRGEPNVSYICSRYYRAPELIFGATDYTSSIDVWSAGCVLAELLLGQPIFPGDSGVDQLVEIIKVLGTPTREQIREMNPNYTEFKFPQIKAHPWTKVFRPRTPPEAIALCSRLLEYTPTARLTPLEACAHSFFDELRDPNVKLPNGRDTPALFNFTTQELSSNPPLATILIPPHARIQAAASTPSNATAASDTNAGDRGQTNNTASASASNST
In data set [2] the test system is wild-type zebrafish (Danio rerio) embryos. Kind of data set: Wild-type zebrafish embryo phenotype assay. The note with it: for Lethality in zebrafish embryos: concentration range < 60μM, added 24 hpf, compared at 96 and 120 hpf.
Data set [3] relates to Tyr216 GSK-3β phosphorylation. In words: GSK-3β Tyr216 phosphorylation in AML cells. To be noted: up to 20 μM; 24h treatment, NB4. Type of data set: cell-based.
The test system of another data set is NB4 and HL-60 cell lines. In words: Methylcellulose colony formation. The class given is cell-based. The note with it: concentration-dependent.
For another data set, the target named is GSK-3α (Sus scrofa, UniProt I6LNT8). Kind of data set: Commercial in vitro GSK-3α inhibition assay at single concentration. To be noted: read-out: GSK-3α Inhibition [%]. The class given is biochemical, porcine.
Chain of GSK-3α (I6LNT8 1-483): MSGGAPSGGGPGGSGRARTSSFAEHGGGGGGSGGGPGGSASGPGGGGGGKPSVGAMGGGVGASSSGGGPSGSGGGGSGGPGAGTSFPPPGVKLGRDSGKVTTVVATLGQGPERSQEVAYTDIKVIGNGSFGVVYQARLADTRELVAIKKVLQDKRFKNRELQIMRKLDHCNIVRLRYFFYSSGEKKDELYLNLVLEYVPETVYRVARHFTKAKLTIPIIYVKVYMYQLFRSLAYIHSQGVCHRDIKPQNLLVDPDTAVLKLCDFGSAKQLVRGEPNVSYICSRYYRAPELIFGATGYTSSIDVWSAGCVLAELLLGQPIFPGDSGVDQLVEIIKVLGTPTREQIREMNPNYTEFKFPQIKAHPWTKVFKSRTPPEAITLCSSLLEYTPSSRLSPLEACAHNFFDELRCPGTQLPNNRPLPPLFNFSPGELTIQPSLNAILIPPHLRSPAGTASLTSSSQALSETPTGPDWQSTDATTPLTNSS
In data set [4] the test system is AML cell lines (HL-60 and NB4). In words: AML differentiation. The note with it: 6 days of treatment. Type of data set: cell-based.
Data set [5] has as its system Tyr279 GSK-3α phosphorylation. In words: GSK-3α Tyr279 phosphorylation in AML cells. Type of data set: cell-based. The note with it: 24h treatment, increasing concentrations, NB4.
A further data set has as its target GSK-3β (h) (Homo sapiens, UniProt P49841). Kind of data set: IC50 determination GSK-3β. Type of data set: biochemical.

Chain of GSK-3β (h) (P49841 whole entry): as the sequence (B2LUN4 1-420) above, with M40V, A59T, S392T, T400A, A402T, T411A counted along it

As usually defined, the solubility is how much of the substance goes into solution per volume. In data set [1], `N#Cc1cc(F)ccc1-c1ccc(CSc2nnc(-c3ccc4c(c3)OCCO4)o2)cc1` [Compound 1, 4′-(((5-(2,3-Dihydrobenzo[b][1,4]dioxin-6-yl)-1,3,4-oxadiazol-2-yl)thio)methyl)-4-fluoro-[1,1′-biphenyl]-2-carbonitrile] returned a solubility of under 1 µg/mL.
On the same count and under the same terms, under `Fc1ccc(-c2ccc(CSc3nnc(-c4ccc5c(c4)OCCO5)o3)cn2)cn1` [Compound 18c, 2-(2,3-Dihydrobenzo[b][1,4]dioxin-6-yl)-5-(((6′-fluoro-[2,3′-bipyridin]-5-yl)methyl)thio)-1,3,4-oxadiazole] stands under 1 µg/mL; under `Fc1ccc(-c2ccc(CSc3nnc(-c4ccc5c(c4)OCCO5)o3)cc2)cn1` [Compound 13f, 2-(2,3-Dihydrobenzo[b][1,4]dioxin-6-yl)-5-((4-(6-fluoropyridin-3-yl)benzyl)thio)-1,3,4-oxadiazole], 7 µg/mL (≈ 16.6 µM).
As usually defined, the inhibition is the share of the control response that was lost under treatment. In the case of `N#Cc1cc(F)ccc1-c1ccc(CSc2nnc(-c3ccc4nc[nH]c4c3)o2)cc1` [Compound 12a, 4′-(((5-(1H-Benzo[d]imidazol-6-yl)-1,3,4-oxadiazol-2-yl)thio)methyl)-4-fluoro-[1,1′-biphenyl]-2-carbonitrile], at GSK-3β, the inhibition at 1 µM came out at 0%.
As for `Cc1ccc(-c2ccc(CSc3nnc(-c4ccc5c(c4)OCCO5)o3)cc2)nc1` [Compound 13e, 2-(2,3-Dihydrobenzo[b][1,4]dioxin-6-yl)-5-(4-(5-methylpyridin-2-yl)benzylthio)-1,3,4-oxadiazole], in data set [1], the solubility was under 1 µg/mL.
`N#Cc1ccc(-c2ccc(CSc3nnc(-c4ccc5c(c4)OCCO5)o3)cc2)nc1` [Compound 13d, 6-(4-((5-(2,3-Dihydrobenzo[b][1,4]dioxin-6-yl)-1,3,4-oxadiazol-2-ylthio)methyl)phenyl)-nicotinonitrile] came in with a solubility in [1] of 78 µg/mL (≈ 182 µM). In data set [2], the “Lethality in zebrafish embryos” value is “no lethality”. The “Effects on zebrafish embryo phenotype” value in data set [2] (in vivo) is recorded as “no effects”.
The term IC50 denotes the midpoint of a concentration-inhibition curve. Read a low IC50 as greater potency. On to `NC(=O)c1cc(F)ccc1-c1ccc(CSc2nnc(-c3ccc4c(c3)OCCO4)o2)cc1` [Compound 27, 4′-((5-(2,3-Dihydrobenzo[b][1,4]dioxin-6-yl)-1,3,4-oxadiazol-2-yl-thio)-methyl)-4-fluorbiphenyl-2-carboxamide], for which the “Tyr216 GSK-3β phosphorylation” value in [3] is “without any relevant effect”. This compound also registered a solubility in data set [1] of 34 µg/mL (≈ 73.4 µM). Further, in the data set on NB4 and HL-60 cell lines, the Methylcellulose colony formation result was “colony formation impairment”. In addition, the inhibition at 1 µM on GSK-3α is 100%. Also, the inhibition at 1 µM on GSK-3β was found to be 100%. Moreover, in data set [2], the “Lethality in zebrafish embryos” value is recorded as “no lethality; also recorded: without lethality”. For the same compound, in data set [2] (in vivo), the “Zebrafish embryo phenotype at higher concentrations” value was “all zebrafish embryos showed a stunted and crooked tailed phenotype”; the “Zebrafish embryo phenotype at lower concentrations” value is listed as “no abnormalities were observed”. Also, in data set [4], the “Morphological and surface marker changes” value is recorded as “consistent with AML differentiation”. In [5], the “Tyr279 GSK-3α phosphorylation” value was “concentration-dependent decrease”. This compound yielded a half-inhibitory concentration (IC50) against GSK-3β (h) of 14 nM.
For the compound `N#Cc1cc(F)ccc1-c1ccc(CS(=O)(=O)c2nnc(-c3ccc4c(c3)OCCO4)o2)cc1` [Compound 26, 4′-((5-(2,3-Dihydrobenzo[b][1,4]dioxin-6-yl)-1,3,4-oxadiazol-2-yl-sulfonyl)methyl)-4-fluorbiphenyl-2-carbonitrile], the inhibition at 0.1 µM at GSK-3α is 0%; on GSK-3β (read-out: GSK-3β Inhibition [%], 100 nM of compound) it was 0%.
